Patent US20070264243A1, “REVERSIBLY IMMORTALIZED HEPATOCYTES AND METHODS OF USE” (priority 1999, published 2007)
Entries after “also recorded” stand apart in the source; their conditions may differ.

What was measured:
NKNT-3 cells = test: MTT cytotoxicity assay; assay type: cell-based, human
Procedure: MTT Cytotoxicity Assays. Sensitivity of NKNT-3 cells to either 5 μM ganciclovir or G418 (500 μg/ml) was confirmed by 3-(4,5-dimethyl-2-thiazolyl)-2,5-diphenyl 2H-tetrazolium bromide (MTT) cytotoxicity assays. NKNT-3 cells were plated in a 96-well microplate at 5×10^3 cells per well to obtain a growth curve. On days 1, 3, 5, and 7, MTT (20 μg/ml) was added to a different well, incubated for 4 h, and then reacted with 150 μl of isopropanol for 10 min. Relative percentage of viability was determined by the ratio of absorbance at 570 and 630 nm with Bio-Rad EIA reader (Bio-Rad, Richmond, Calif.).

C8-B/Ras cells = test: Soft agar assay, sensitivity of colonies to gancyclovir; assay type: cell-based, rat
Procedure: Soft agar assay. To assay the capacity for anchorage independent growth, 5×10^4 cells were suspended in 2 ml of 0.3% Difco agar in IM and gently overlaid onto 60 mm dishes containing a lower layer of 0.5% agar. Cultures were fed every 5 to 7 days with a small amount of media. After 20 days of growth at 37° C., the dishes were stained with 0.5 mg/ml p-iodonitrotetrazolium violet (Sigma Chemical Co., St. Louis, Mo.), and macroscopically visible colonies (>100 μm in diameter) were scored. HepG2 cells were used as a positive control.

tumors in SCID mice = test: Tumor sensitivity to gancyclovir in tumor-bearing SCID mice; assay type: in vivo, mouse
Procedure: SCID mouse studies. The tumorigenicity of cell lines was assayed by subcutaneous injection of cells into the flanks of immunodeficient (SCID) mice. Cells were dislodged from monolayer culture with trypsin, washed, and suspended in PBS. SCID mice were inoculated subcutaneously with 1×10^6 cells per site. Animals were monitored every third day for the development of growth at the sites of injection. Animals were sacrificed at 24 weeks or when tumors reached 1 to 2 cm in diameter. Tumors were processed for routine histology and immunohistochemistry. To determine tumor sensitivity to treatment with gancyclovir, some animals were given a 0.2 ml intraperitoneal injection of gancyclovir (50 mg/kg) daily for 14 days when tumors reached 1-1.2 cm in size.

Compound	sensitivity of NKNT-3 cells to G418 (NKNT-3 cells; G418 500 μg/ml)	rare three-dimensional colonies after Ad-Cre infection, sensitivity to gancyclovir (C8-B/Ras cells; C8-B/Ras cells after Ad-Cre infection)	C8-B/Ras soft agar colonies, sensitivity to gancyclovir (C8-B/Ras cells; media containing 5 μM gancyclovir)	tumor recurrence (tumors in SCID mice; 4-week post-gancyclovir observation period)	tumor response by the end of gancyclovir treatment (tumors in SCID mice; gancyclovir 50 mg/kg, 14-day course)	time until tumors stopped growing (tumors in SCID mice; gancyclovir 50 mg/kg, 14-day course, tumors >1 cm)	sensitivity of NKNT-3 cells to ganciclovir (NKNT-3 cells; 5 μM ganciclovir)
CN[C@@H]1[C@@H](O)[C@@H](O[C@@H]2[C@@H](O)[C@H](O[C@H]3O[C@H]([C@@H](C)O)[C@@H](O)[C@H](O)[C@H]3N)[C@@H](N)C[C@H]2N)OC[C@]1(C)O [G418]	confirmed						
Nc1nc(O)c2ncn(COC(CO)CO)c2n1 [gancyclovir]		all were sensitive	could be eliminated	no tumor recurrence	could no longer be identified clinically or histologically; also recorded: complete regression of established tumors	≤ 5 days	confirmed
